Here are results for 2 compounds from patent US10375956B2, “Herbicidally active 2-(substituted-phenyl)-cyclopentane-1,3-dione compounds and derivatives thereof” (Syngenta Limited, priority 2013, dated 2019).

Common to all, as to type: in vivo
Experiment [1] deals with Lolium perenne (LOLPE). As to the kind of experiment: Test 2 glasshouse assay (IF50 formulation, X-77), pre-emergence herbicidal activity. The settings on record: 480 h, 250 g/ha, 20DAA, read-out: Percentage phytotoxicity LOLPE. In short, it runs like this:
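Plants in soil pots were sprayed 1 day (pre-emergence) or ~12 days (post-emergence) after sowing with IF50 formulation diluted in 0.2% v/v X-77. Cool species were grown at 20/16 °C day/night, 16 h light, 65% humidity. Visual % phytotoxicity was scored at 20DAA (pre) or 15DAA (post).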

The test system of experiment [2] is Brachiaria plantaginea (BRAPL). The description is as above. The settings on record: Urochloa plantaginea, 480 h, 250 g/ha, 20DAA, read-out: Percentage phytotoxicity BRAPL. The procedure, abridged: (§1)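 Test plants were sown in pots of standard soil and cultivated for one day (pre-emergence) or about 12 days (post-emergence) under controlled glasshouse conditions. An aqueous spray with IF50 and 0.2% v/v X-77 was then applied. Damage was rated visually as percentage phytotoxicity 20 days (pre) or 15 days (post) later.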

For experiment [3], the system named is Sorghum vulgare Pers. (SORVU). Described as above. As to conditions: Sorghum bicolor, 480 h, 250 g/ha, 20DAA, read-out: Percentage phytotoxicity SORVU. In short, it runs like this: as §1
In experiment [4] the test system is Panicum miliaceum (PANMI). The description is as above. The settings on record: 480 h, 250 g/ha, 20DAA, read-out: Percentage phytotoxicity PANMI. The procedure, abridged:
as §1

The test system of experiment [5] is Setaria faberi (SETFA). The description is as above. As to conditions: 480 h, 250 g/ha, 20DAA, read-out: Percentage phytotoxicity SETFA. The procedure, abridged: as §1
The test system of experiment [6] is Echinochloa crus-galli (ECHCG). The description is as above. As to conditions: 480 h, 250 g/ha, 20DAA, read-out: Percentage phytotoxicity ECHCG. In short, it runs like this: as §1
Experiment [7] concerns Digitaria sanguinalis (DIGSA). The experiment is described as above. The settings on record: 480 h, 250 g/ha, 20DAA, read-out: Percentage phytotoxicity DIGSA. In short, it runs like this:
as §1

For experiment [8], the system named is Alopecurus myosuroides (ALOMY). Nature of the experiment: Test 1 glasshouse assay, post-emergence herbicidal activity. The settings on record: 312 h, after 13 days, read-out: Percentage phytotoxicity ALOMY. In short, it runs like this: (§2)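 Plants sprayed 8 days after sowing with active ingredient in acetone/water (50:50) containing 0.5% Tween 20, grown in glasshouse at 24/16°C day/night, 14 h light, 65% humidity. Phytotoxicity scored visually after 13 days as percentage damage (100% = total damage; 0% = none).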

Experiment [9] relates to Echinochloa crus-galli (ECHCG). The description is as above. As to conditions: 312 h, after 13 days, read-out: Percentage phytotoxicity ECHCG. In short, it runs like this:
as §2

Experiment [10] concerns Alopecurus myosuroides (ALOMY). As to the kind of experiment: Test 1 glasshouse assay, pre-emergence herbicidal activity. As to conditions: 312 h, visual evaluation after 13 days, read-out: Percentage phytotoxicity ALOMY. The procedure, abridged: (§3)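 Steps: sow seeds in standard soil; after one day in the glasshouse, spray aqueous solution of technical compound (acetone/water 50:50, 0.5% Tween 20); grow on at 24/16° C with 14 h light and twice-daily watering; score phytotoxicity visually at 13 days.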

Experiment [11] has as its system Amaranthus retroflexus (AMARE). The experiment is described as above. The settings on record: 312 h, visual evaluation after 13 days, read-out: Percentage phytotoxicity AMARE. In short, it runs like this:
as §3

Experiment [12] has as its system Abutilon theophrasti (ABUTH). Described as above. As to conditions: 312 h, visual evaluation after 13 days, read-out: Percentage phytotoxicity ABUTH. The procedure, abridged:
as §3

Experiment [13] concerns Echinochloa crus-galli (ECHCG). The experiment is described as above. As to conditions: 312 h, visual evaluation after 13 days, read-out: Percentage phytotoxicity ECHCG. In short, it runs like this: as §3
Where [14] appears, read: post-emergence (Example 1B Table 1), 62.5 g/ha.
Where [15] appears, read: post-emergence (Example 1B Table 1).
Setting [16] is: post-emergence (Example 1B Table 2).
Setting [17] is: post-emergence (Example 1B Table 1), 30 g/ha.

As to `C#CCC1CC(=O)C(c2c(F)cc(-c3ccc(Cl)cc3)cc2OC)C1=O` (centres unmarked) [Compound A14], the pest or weed control at 250 g/ha is 70% in experiment [1]; 100% in experiment [2]; 90% in [3]; 100% in experiment [4]; 100% in experiment [5]; 80% in experiment [6]. The pest or weed control at 250 g/ha is 100% in experiment [7]; 90% in experiment [8] (setting [15]); 90% in experiment [8] (setting [16]); 100% in [9] (setting [15]); 100% in experiment [9] (setting [16]); 100% in experiment [10]. For the same compound, the pest or weed control at 250 g/ha in experiment [11] is 90%; in experiment [12] it was 20%; in experiment [13], 100%. The pest or weed control at 62.5 g/ha in [8] (setting [14]) is 70%; in experiment [9] (setting [14]), 100%.
For the compound `C#CCC1CC(=O)C(c2c(F)cc(-c3ccc(F)c(F)c3)cc2OC)C1=O` (centres unmarked) [Compound A22], the pest or weed control at 250 g/ha in [1] turned out to be 20%; in experiment [2] it was 90%; in [3], 70%; in experiment [4] it was 80%; in [5] it was 90%; in experiment [6] it was 70%. The pest or weed control at 250 g/ha was found to be 90% in experiment [7]; 100% in [8] (setting [15]); 100% in experiment [9] (setting [15]); 80% in [10]; 30% in experiment [11]; 0% in experiment [12]. The pest or weed control at 250 g/ha in experiment [13] came out at 100%. For the same compound, the pest or weed control at 30 g/ha came to 70% in [8] (setting [17]) and 90% in [9] (setting [17]).
